Key:
Assay type in all cases: physicochemical
[1] = Weight gain of dried (anhydrate) salt form on exposure to air; details: exposed to air
Description: 1(c). A sample of the anhydrate formed in example 1(b) was exposed to air and the weight gain recorded as follows: […]

[2] = Weight loss on drying in a vacuum oven; details: vacuum oven at 40° C. for 65 hours
Method: 1(b). 735.1 mg of the product of example 1(a) was dried in a vacuum oven at 40° C. for 65 hours. The weight loss was 0.043 g or 5.85%, which corresponds to 1.9 moles of water per mole of amlodipine.

[3] = Annealing of the dihydrate, form checked by IR
Method: 1(d). A sample from example 1(a) was annealed for 10 minutes at 90° C. while another sample of the same product was annealed for 30 minutes at 145° C. […] The IR for the sample annealed for 10 minutes is as shown in FIG. 4 and the IR for the sample annealed for 30 minutes is as shown in FIG. 5.

[4] = Stability in solid state and in solution
Light sensitivity = details: compared with known anhydrate
[5] = compared with known prior art anhydrate

CCOC(=O)C1=C(COCCN)NC(C)=C(C(=O)OC)C1c1ccccc1Cl.O=S(=O)(O)c1ccccc1 (centres unmarked) [example 2(a)]
mole of water taken up for one mole of amlodipine ([1]; 21 hour): one
Weight after 30 min ([1]; weight at start 318.6 mg): 320.3 mg
Weight after 1 hour ([1]; weight at start 318.6 mg): 323.9 mg
Weight after 3.5 hour ([1]; weight at start 318.6 mg): 328.2 mg
Weight after 21 hour ([1]; weight at start 318.6 mg): 328.2 mg

amlodipine besylate dihydrate [example 1(a)]
moles of water per mole of amlodipine lost [2]: 1.9 mol
form after annealing (IR) ([3]; annealed for 10 minutes at 90° C.): converted to the known anhydrate form
form after annealing (IR) ([3]; annealed for 30 minutes at 145° C.): converted to the known anhydrate form

amlodipine besylate monohydrate
stability in solid state [4, 5]: equivalent to the known prior art amlodipine besylate anhydrate form
stability in solution [4, 5]: equivalent to the known prior art amlodipine besylate anhydrate form
stability of hydrate form ([4]; monohydrate compared with dihydrate, conversion by heating): more stable than the dihydrate form
light sensitivity (Light sensitivity): slightly less in comparison to the known anhydrate

CCOC(=O)C1=C(COCCN)NC(C)=C(C(=O)OC)C1c1ccccc1Cl.O=S(=O)(O)c1ccccc1 (centres unmarked) [example 1(b)]
moles of water taken up for one mole of amlodipine ([1]; 21 hour): two
Weight after 30 min ([1]; weight at start 103.1 mg): 105.7 mg
Weight after 1 hour ([1]; weight at start 103.1 mg): 107.3 mg
Weight after 3.5 hour ([1]; weight at start 103.1 mg): 109.3 mg
Weight after 21 hour ([1]; weight at start 103.1 mg): 109.3 mg

Source: US6828339B2, “Amlodipine salt forms and processes for preparing them” (Synthon BV, priority 2001, dated 2004)
